Assay [1] concerns the target T1, ATP-dependent potassium channels (K+ATP) (Rattus norvegicus, UniProt Q09429).
T1 construct: the potassium channels derive from a rat's cerebral cortex; tissue CEREP; host or cells: rat cerebral cortex
The experiment in a line: [3H]glibenclamide binding to ATP-dependent potassium channels of rat cerebral cortex. Conditions: FIG. 2. A digest of the protocol: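 Rat cerebral cortex membranes incubated 1 h at 22° C with 0.1 nM [3H]glibenclamide; nonspecific binding defined with 1 μM unlabelled glibenclamide. Compounds tested at 3–300 nM; values are percent inhibition of specific binding.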

Another assay has as its system Male Sprague-Dawley rats. As to the kind of experiment: Glycemia and insulinemia after oral administration in fasted rats. Format: in vivo, rat. An excerpt:
In normal animals (as in man), the consequence of the administration of insulinotropic compounds is a significant increase in the plasmatic level of insulin. This induced hyperinsulinemia induces a reduction in glycemia. This example studies the evolution of glycemia and of insulinemia following oral administration of the inventive compounds in rats: the insulinotropic action of the compounds in vivo should induce a significant decrease of glycemia.
Male Sprague-Dawley rats (300-320 g) (CERJ—Le Genest St Isle-France) were used in order to carry out this experiment. The rats were fed with a standard diet of granular material; they had free access to food and drink and were kept in individual, ventilated cages in a 12 hr/12 hr light/dark rhythm. The animals were deprived of food for 16 hours prior to the experiment.
The compound was suspended in an aqueous carboxymethylcellulose solution (Sigma C4888) at 1% containing 0.1% Tween80 (Sigma P8074). The animals of the control group received the vehicle alone. The treated animals received a single administration of the compound (the suspension was administered by gavage at the rate of 10 ml/kg). Each group was made up of 11 animals. A 1st blood sample was taken by puncturing the retro-orbital sinus of the animals under volatile isoflurane anaesthesia: this sample makes up the initial time of the experiment. The substance or the vehicle were immediately administered to the animals by gavage, and blood samples were taken over time.
The animals' glycemia was measured in real time using a glucometer (Glucotrend2-Roche Diagnostic-France). The insulinemias were measured using an ELISA kit (Insulin Elisa Kit—Crystal Chem. USA). The method used was of the ELISA type: plasmatic insulin was specifically bound to anti-insulin monoclonal antibodies immobilised on the microtitration plate; simultaneously, an anti-insulin polyclonal guinea pig antibody was added to the reaction. The revelation of the reaction was guaranteed by an antibody coupled to peroxidase. These antibodies bind specifically to the guinea pig's immunoglobulins. The production of oxidised chromogen causes an increase in absorbance in proportion to the quantity of insulin present in the sample.

The subject of assay [2] is isolated human pancreatic islets. The experiment in a line: Insulin secretion by isolated human pancreatic islets. Type of assay: cell-based. Conditions: 1 hour incubation. Here is the method:
Isolated islets of Langerhans were put together with compounds according to the invention. They were incubated for one hour, and then the supernatant was taken off. The insulin contained in the supernatant (which corresponds to the insulin secreted by the islets over 1 hr) was titrated. It was compared to the basal secretion of insulin, i.e. to the quantity of insulin secreted by the islets over 1 hour in the absence of a compound. The higher the induced insulin/basal insulin ratio, the stronger the insulinotropic potential of the compound.
This study was carried out in the cellular therapy of diabetes laboratory led by Professor Pattou (INSERM ERIT-M 0106, Faculty of medicine of Lille, France (59)). The protocols for the extraction of islets and culture are published (Riachy, Vandewalle et al. 2001). The islets were cultured in a CMRL1066 (Gibco BRL) medium containing 5.5 mmol/l glucose. They were put together with the compounds (+0.001% DMSO). The insulin secreted was measured after 1 hour incubation (titration of the supernatant after centrifugation and extraction as described in the reference) according to a radioimmunological titration method (BI-INSULIN IRMA kit, Sanofi Diagnostics Pasteur). Each condition was applied to 5 independent islets preparations, each containing 40 equivalent islets (40 IE). […]

Molecules are shown by their SMILES.

Broadly, the IC50 is the concentration at which inhibition is half-maximal.

T1 sequence (Q09429 whole entry): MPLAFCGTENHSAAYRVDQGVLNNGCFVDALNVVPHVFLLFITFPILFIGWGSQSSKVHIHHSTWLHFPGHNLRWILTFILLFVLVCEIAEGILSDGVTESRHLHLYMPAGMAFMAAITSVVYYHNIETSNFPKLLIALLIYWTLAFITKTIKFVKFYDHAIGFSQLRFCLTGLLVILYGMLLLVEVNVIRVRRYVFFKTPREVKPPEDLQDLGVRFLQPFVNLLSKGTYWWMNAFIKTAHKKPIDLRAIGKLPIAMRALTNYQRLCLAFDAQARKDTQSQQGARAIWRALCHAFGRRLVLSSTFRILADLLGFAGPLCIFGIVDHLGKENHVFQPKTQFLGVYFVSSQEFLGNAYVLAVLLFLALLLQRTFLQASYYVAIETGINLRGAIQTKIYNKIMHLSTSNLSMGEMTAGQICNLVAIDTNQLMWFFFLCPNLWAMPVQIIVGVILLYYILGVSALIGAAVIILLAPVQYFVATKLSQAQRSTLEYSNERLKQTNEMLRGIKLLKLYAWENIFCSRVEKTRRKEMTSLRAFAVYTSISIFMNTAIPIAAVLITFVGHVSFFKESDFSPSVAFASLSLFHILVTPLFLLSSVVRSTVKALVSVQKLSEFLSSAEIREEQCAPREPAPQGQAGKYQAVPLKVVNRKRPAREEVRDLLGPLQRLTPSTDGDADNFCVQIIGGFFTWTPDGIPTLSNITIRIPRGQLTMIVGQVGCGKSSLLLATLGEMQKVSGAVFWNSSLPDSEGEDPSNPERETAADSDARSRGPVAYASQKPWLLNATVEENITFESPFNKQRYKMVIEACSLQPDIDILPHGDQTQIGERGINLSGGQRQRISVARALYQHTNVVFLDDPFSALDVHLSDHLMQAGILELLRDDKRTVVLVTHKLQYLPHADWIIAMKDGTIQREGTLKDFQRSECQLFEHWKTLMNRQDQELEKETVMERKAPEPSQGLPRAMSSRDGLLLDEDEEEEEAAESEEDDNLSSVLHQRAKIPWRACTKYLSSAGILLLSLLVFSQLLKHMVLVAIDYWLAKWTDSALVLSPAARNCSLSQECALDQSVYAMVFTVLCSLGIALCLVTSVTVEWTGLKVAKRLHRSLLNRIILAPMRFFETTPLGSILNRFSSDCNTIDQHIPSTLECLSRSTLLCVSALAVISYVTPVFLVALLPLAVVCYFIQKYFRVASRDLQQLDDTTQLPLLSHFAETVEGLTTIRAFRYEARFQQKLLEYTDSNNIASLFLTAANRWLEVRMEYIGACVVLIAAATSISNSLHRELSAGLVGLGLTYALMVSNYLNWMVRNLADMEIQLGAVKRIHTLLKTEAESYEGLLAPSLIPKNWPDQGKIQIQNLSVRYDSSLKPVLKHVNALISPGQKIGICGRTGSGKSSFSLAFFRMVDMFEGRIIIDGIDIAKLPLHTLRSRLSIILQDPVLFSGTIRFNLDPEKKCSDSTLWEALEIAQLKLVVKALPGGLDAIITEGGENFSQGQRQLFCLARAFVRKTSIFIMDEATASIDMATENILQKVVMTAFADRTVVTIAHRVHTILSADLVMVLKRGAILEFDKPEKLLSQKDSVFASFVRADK
T1 sequence (P70673 whole entry partner): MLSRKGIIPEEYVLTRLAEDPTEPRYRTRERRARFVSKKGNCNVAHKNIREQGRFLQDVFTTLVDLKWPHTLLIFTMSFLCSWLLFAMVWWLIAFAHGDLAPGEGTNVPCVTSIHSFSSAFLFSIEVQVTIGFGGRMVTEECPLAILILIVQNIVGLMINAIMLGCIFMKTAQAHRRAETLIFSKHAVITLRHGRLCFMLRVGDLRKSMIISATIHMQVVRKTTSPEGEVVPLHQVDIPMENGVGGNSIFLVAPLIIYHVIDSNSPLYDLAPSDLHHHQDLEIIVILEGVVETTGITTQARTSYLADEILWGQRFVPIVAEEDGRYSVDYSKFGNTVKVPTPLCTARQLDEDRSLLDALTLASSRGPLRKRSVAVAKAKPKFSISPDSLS

In assay [1], `CC(C)CC(NC(=O)Cc1ccc(OC(C)(C)C(=O)O)cc1)c1ccccc1N1CCCCC1` (stereo not drawn) [Compound 1, 2-[4-[1-(3-methyl-1-(2-(1-piperidinyl)phenyl)butyl)aminocarbonylmethyl]phenoxy]-2-methylpropanoic acid] yielded an IC50 of 14 nM. In addition, in the assay with Male Sprague-Dawley rats (50 mpk, oral, fasted rat), the “decrease in glycemia between T=0 and T=120 min” value is on record as 48%; the “plasmatic insulin peak, time following administration” value was found to be 15 min. In addition, the “hypoglycemia kinetics and amplitude compared with compound 52” value in the assay with Male Sprague-Dawley rats (comparison of FIGS. 5a and 5c) was “faster and more intense”. Moreover, in assay [2] (0.1 μM), the “insulinotropic activity on human islets” value is “not having any significant insulinotropic activity”. Besides, the “insulin secreted in 1 hour versus non-treated islets” value in assay [2] (1 μM) was about 4 times.
